From patent US7692014B2, “Inhibitors of the HIV integrase enzyme” (Pfizer, Inc., priority 2004, dated 2010)

What follows are compounds tested against T1, Full-length wild type HIV-1 integrase (SF1) (Human immunodeficiency virus type 1 group M subtype B, UniProt P04585) (assay: Integrase strand-transfer scintillation proximity assay). Conditions: integrase strand-transfer SPA; read-out: IC50.
T1 construct: made in house; host or cells: E. coli BL21 (DE3), pET24a vector
Type: biochemical
Text: Integrase Strand-Transfer Scintillation Proximity Assay Oligonucleotides
The annealed product represents preprocessed viral ds-DNA derived from the LTR U5 sequence of the viral genome. A ds-DNA control to test for non-specific interactions was made using a 3′ di-deoxy derivative of oligonucleotide #1 annealed to oligonucleotide #2. The CA overhang at the 5′ end of the non-biotinylated strand of the ds-DNA was created artificially by using a complimentary DNA oligonucleotide shortened by 2 base pairs. This configuration eliminates the requisite 3′ processing step of the integrase enzyme prior to the strand-transfer mechanism.
Host ds-DNA was prepared as an unlabeled and [^3H]-thymidine labeled product from annealed oligonucleotide #3—5-[…]-3′ (SEQ ID NO: 3), and oligonucleotide #4—5′-[…]-3′ (SEQ ID NO: 4), both synthesized by TriLink BioTechnologies, Inc. (San Diego, Calif.). The annealed product had overhanging 3′ ends of poly(dA). […] The radiolabeled product was purified using a NENSORB cartridge and stored in stabilized aqueous solution (PerkinElmer).
Reagents: Streptavidin-coated polyvinyltoluene (PVT) SPA beads were purchased from Amersham Biosciences (Piscataway, N.J.). Cesium chloride was purchased from Shelton Scientific, Inc. (Shelton, Conn.). White, polystyrene, flat-bottom, non-binding surface, 96-well plates were purchased from Corning. All other buffer components were purchased from Sigma (St. Louis, Mo.) unless otherwise indicated. Enzyme Construction: Full-length wild type HIV-1 integrase (SF1) sequence (amino acids 1-288) was constructed in a pET24a vector (Novagen, Madison, Wis.). […] Enzyme Purification: Full length wild-type HIV Integrase was expressed in E.coli BL21 (DE3) cells and induced with 1 mM isopropyl-1 thio-β-D-galactopyranoside (IPTG) when cells reached an optical density between 0.8-1.0 at 600 nm. Cells were lysed by microfluidation in 50 mM HEPES pH 7.0, 75 mM NaCl, 5 mM DTT, 1 mM 4-(2-Aminoethyl)benzenesulfonylfluoride HCl (AEBSF). Lysate was then centrifuged 20 minutes at 11 k rpm in GSA rotor in Sorvall RC-5B at 4° C. Supernant was discarded and pellet resuspended in 50 mM HEPES pH 7.0, 750 mM NaCl, 5 mM DTT, 1 mM AEBSF and homogenized in a 40 mL Dounce homogenizer for 20 minutes on ice. Homogenate was then centrifuged 20 minutes at 11 k rpm in SS34 rotor in Sorvall RC-5B at 4° C. Supernant was discarded and pellet resuspended in 50 mM HEPES pH 7.0, 750 mM NaCl, 25 mM CHAPS, 5 mM DTT, 1 mM AEBSF. Preparation was then centrifuged 20 minutes at 11 k rpm in SS34 rotor in Sorvall RC-5B at 4° C.
Supernant was then diluted 1:1 with 50 mM HEPES pH 7.0, 25 mM CHAPS, 1 mM DTT, 1 mM AEBSF and loaded onto a Q-Sepharose column pre-equilibrated with 50 mM HEPES, pH 7.0, 375 mM NaCl, 25 mM CHAPS, 1 mM DTT, 1 mM AEBSF. The flow through peak was collected and NaCl diluted to 0.1 M with 50 mM HEPES pH 7.0, 25 mM CHAPS, 1 mM DTT, 0.5 mM AEBSF and loaded onto a SP-Sepharose column pre-equilibrated with 50 mM HEPES pH 7.0, 100 mM NaCl, 25 mM CHAPS, 1 mM DTT, 0.5 mM AEBSF. After washing the column with the equilibration buffer, a 100 to 400 mM NaCl gradient was run. The eluted integrase was concentrated and run on a S-300 gel diffusion column using 50 mM HEPES pH 7.0, 500 mM NaCl, 25 mM CHAPS, 1 mM DTT, 0.5 mM AEBSF. […] All columns were run in a 4° C. cold room.
Viral DNA Bead Preparation: Streptavidin-coated SPA beads were suspended to 20 mg/mL in 25 mM 3-morpholinopropanesulfonic acid (MOPS) (pH 7.2) and 1.0% NaN3.
`O=C1CN(Cc2cn(Cc3ccc(F)cc3)c3cnc4c(=O)n(O)ccc4c23)CCN1` [Example 6, 3-(4-fluorobenzyl)-7-hydroxy-1-[(3-oxopiperazin-1-yl)methyl]-3,7-dihydro-6H-pyrrolo(2,3-c]-1,7-naphthyridin-6-one] showed an IC50 of 7 nM. `NC(=O)[C@H]1CCCN1Cc1cn(Cc2ccc(F)cc2)c2cnc3c(=O)n(O)ccc3c12` [Example 12, 1-{[3-(4-fluorobenzyl)-7-hydroxy-6-oxo-6,7-dihydro-3H-pyrrolo[2,3-c]-1,7-naphthyridin-1-yl]methyl)-D-prolinamide] was tested, and the IC50 was 13 nM. Compound `O=c1c2ncc3c(c(CN4CCc5ccccc5C4)cn3Cc3ccc(F)cc3)c2ccn1O` [Example 10, 1-(3,4-dihydroisoquinolin-2(1H)-ylmethyl)-3-(4-fluorobenzyl)-7-hydroxy-3,7-dihydro-6H-pyrrolo[2,3-c]-1,7-naphthyridin-6-one] has an IC50 of 40 nM. `O=C1NCCC12CCN(Cc1cn(Cc3ccc(F)cc3)c3cnc4c(=O)n(O)ccc4c13)CC2` [Example 13, 3-(4-fluorobenzyl)-7-hydroxy-1-[(1-oxo-2,8-diazaspiro[4,5]dec-8-yl)methyl]-3,7-dihydro-6H-pyrrolo[2,3-c]-1,7-naphthyridin-6-one] gave an IC50 of 8 nM. `O=c1c2ncc3c(c(S(=O)(=O)NCCc4c[nH]c5ccccc45)cn3Cc3ccc(F)cc3)c2ccn1O` [Example 21, 3-(4-fluorobenzyl)-7-hydroxy-N-{2-(1H-indol-3-yl)ethyl]-6-oxo-6,7-dihydro-3H-pyrrolo[2,3-c]-1,7-naphthyridine-1-sulfonamide] showed an IC50 of 46 nM. `Cc1cnc(CNCc2cn(Cc3ccc(F)cc3)c3cnc4c(=O)n(O)ccc4c23)cn1` [Example 42, 3-(4-fluorobenzyl)-7-hydroxy-1-({[(5-methylpyrazin-2-yl)methyl]amino)methyl)-3,7-dihydro-6H-pyrrolo[2,3-c]-1,7-naphthyridin-6-one] was tested, and the IC50 was 54 nM. In the case of `O=c1c2ncc3c(c(CN4CCCCC4CO)cn3Cc3ccc(F)cc3)c2ccn1O` (stereo not drawn) [Example 49, 3-(4-fluorobenzyl)-7-hydroxy-1-{[2-(hydroxymethyl)piperidin-1-yl]methyl}-3,7-dihydro-6H-pyrrolo[2,3-c]-1,7-naphthyridin-6-one], the IC50 is reported as 13 nM. For `CCN(CC)CCN(CC)Cc1cn(Cc2ccc(F)cc2)c2cnc3c(=O)n(O)ccc3c12` [Example 50, 1-{[[2-(diethylamino)ethyl] (ethyl)amino]methyl}-3-(4-fluorobenzyl)-7-hydroxy-3,7-dihydro-6H-pyrrolo[2,3-c]-1,7-naphthyridin-6-one], the IC50 was 11.5 nM. `O=C1c2ncc3c(ccn3Cc3ccc(F)cc3)c2CCCN1O` [Example 45, 3-(4-fluorobenzyl)-7-hydroxy-7,8,9,10-tetrahydropyrrolo[3′,2′: 4,5]pyrido[2,3-c]azepin-6(3H)-one] was tested, and the IC50 was 24 nM. `O=c1c2ncc3c(c(CNCc4ccccn4)cn3Cc3ccc(F)cc3)c2ccn1O` [Example 44] gave an IC50 of 31 nM. `CCCCCN(C)Cc1cn(Cc2ccc(F)cc2)c2cnc3c(=O)n(O)ccc3c12` [Example 11, 3-(4-fluorobenzyl)-7-hydroxy-1-{[methyl(pentyl)amino]methyl}-3,7-dihydro-6H-pyrrolo[2,3-c]-1,7-naphthyridin-6-one] gave an IC50 of 6 nM. For `O=C1CN(S(=O)(=O)c2cn(Cc3ccc(F)cc3)c3cnc4c(=O)n(O)ccc4c23)CCN1` [Example 22, 3-(4-fluorobenzyl)-7-hydroxy-1-[(3-oxopiperazin-1-yl)sulfonyl]-3,7-dihydro-6H-pyrrolo[2,3-c]-1,7-naphthyridin-6-one], the IC50 was 6 nM. `CN1CCN(Cc2cn(Cc3ccc(F)cc3)c3cnc4c(=O)n(O)ccc4c23)CC1` [Example 7, 3-(4-fluorobenzyl)-7-hydroxy-1-[(4-methylpiperazin-1-yl)methyl]-3,7-dihydro-6H-pyrrolo[2,3-c]-1,7-naphthyridin-6-one] showed an IC50 of 17 nM. `O=c1c2ncc3c(c(CN4CCN5C[C@H](O)CC5C4)cn3Cc3ccc(F)cc3)c2ccn1O` (stereo partly drawn) [Example 55, 3-(4-fluorobenzyl)-7-hydroxy-1-{[(7R)-7-hydroxyhexahydropyrrolo [1,2-a]pyrazin-2(1H)-yl]methyl}-3,7-dihydro-6H-pyrrolo[2,3-c]-1,7-naphthyridin-6-one] gave an IC50 of 7 nM. For `O=c1c2ncc3c(c(CNCc4ccc(C(F)(F)F)cc4)cn3Cc3ccc(F)cc3)c2ccn1O` [Example 43, 3-(4-fluorobenzyl)-7-hydroxy-1-({[4-(trifluoromethyl)benzyl]amino}methyl)3,7-dihydro-6H-pyrrolo[2,3-c]-1,7-naphthyridin-6-one], the IC50 was 122 nM. Compound `O=C(CN1CCN(Cc2cn(Cc3ccc(F)cc3)c3cnc4c(=O)n(O)ccc4c23)CC1)N1CCCC1` [Example 15, 3-(4-fluorobenzyl)-7-hydroxy-1-{[4-(2-oxo-2-pyrrolidin-1-ylethyl)piperazin-1-yl]methyl}-3,7-dihydro-6H-pyrrolo[2,3-c]-1,7-naphthyridin-6-one] has an IC50 of 5 nM. `O=C(NCCc1cnccn1)c1cn(Cc2ccc(F)cc2)c2cnc3c(=O)n(O)ccc3c12` [Example 28, 3-(4-fluorobenzyl)-7-hydroxy-6-oxo-N-(2-pyrazin-2-ylethyl)-6,7-dihydro-3H-pyrrolo[2,3-c]-1,7-naphthyridine-1-carboxamide] was tested, and the IC50 was 12 nM. Compound `Cc1cccc(CNCc2cn(Cc3ccc(F)cc3)c3cnc4c(=O)n(O)ccc4c23)c1` [Example 41, 3-(4-fluorobenzyl)-7-hydroxy-1-{[(3-methylbenzyl)amino]methyl}-3,7-dihydro-6H-pyrrolo[2,3-c]-1,7-naphthyridin-6-one] has an IC50 of 42 nM. `O=C1NC[C@@H]2CCN(Cc3cn(Cc4ccc(F)cc4)c4cnc5c(=O)n(O)ccc5c34)C[C@H]12` [Example 56, 3-(4-fluorobenzyl)-7-hydroxy-1-{[(3aR,7aR)-3-oxooctahydro-5H-pyrrolo[3,4-c]pyridin-5-yl]methyl}-3,7-dihydro-6H-pyrrolo[2,3-c]-1,7-naphthyridin-6-one] showed an IC50 of 11.5 nM. In the case of `O=c1c2ncc3c(c(CN4CCOCC4)cn3Cc3ccc(F)cc3)c2ccn1O` [Example 57, 3-(4-fluorobenzyl)-7-hydroxy-1-(morpholin-4-ylmethyl)-3,7-dihydro-6H-pyrrolo[2,3-c]-1,7-naphthyridin-6-one], the IC50 is reported as 7 nM. `O=C1CCCN1CC1(O)CCN(Cc2cn(Cc3ccc(F)cc3)c3cnc4c(=O)n(O)ccc4c23)CC1` [Example 18, 3-(4-fluorobenzyl)-7-hydroxy-1-({4-hydroxy-4-[(2-oxopyrrolidin-1-yl)methyl]piperidin-1-yl}methyl)-3,7-dihydro-6H-pyrrolo[2,3-c]-1,7-naphthyridin-6-one] was tested, and the IC50 was 11 nM. For `O=c1c2ncc3c(c(COCCOC4CCCCC4)cn3Cc3ccc(F)cc3)c2ccn1O` [Example 34, 1-{[2-(cyclohexyloxy)ethoxy]methyl}-3-(4-fluorobenzyl)-7-hydroxy-3,7-dihydro-6H-pyrrolo[2,3-c]-1,7-naphthyridin-6-one], the IC50 was 45 nM. Compound `O=C(NCC(F)(F)F)c1cn(Cc2ccc(F)cc2)c2cnc3c(=O)n(O)ccc3c12` [Example 30, 3-(4-fluorobenzyl)-7-hydroxy-6-oxo-N-(2,2,2-trifluoroethyl)-6,7-dihydro-3H-pyrrolo[2,3-c]-1,7-naphthyridine-1-carboxamide] has an IC50 of 13 nM. Compound `CCN(Cc1cn(Cc2ccc(F)cc2)c2cnc3c(=O)n(O)ccc3c12)C1CCCCC1` [Example 14, 1-{[cyclohexyl(ethyl)amino]methyl}-3-(4-fluorobenzyl)-7-hydroxy-3,7-dihydro-6H-pyrrolo[2,3-c]-1,7-naphthyridin-6-one] has an IC50 of 13 nM.
